According to patent publication US20080287435A1, “Active Ingredient Combinations Having Insecticide and Acaricide Properties” (Bayer CropScience AG, priority 2005, published 2008):

Experiments:
Myzus persicae = Myzus persicae test (cabbage leaf dip); format: in vivo; conditions: concentration 20 ppm; peach aphid on cabbage leaves (Brassica oleracea), dipped
Description: To produce a suitable preparation of active compound, one part by weight of active compound is mixed with the stated amounts of solvent and emulsifier, and the concentrate is diluted with emulsifier-containing water to the desired concentration.
Cabbage leaves (Brassica oleracea) which are heavily infested by the peach aphid (Myzus persicae) are treated by being dipped into the preparation of active compound of the desired concentration.
After the desired period of time, the kill in % is determined. 100% means that all aphids have been killed; 0% means that none of the aphids have been killed.

Plutella xylostella = Plutella xylostella test (cabbage leaf dip); format: in vivo; conditions: concentration 0.16 ppm; diamond back moth caterpillars on dipped cabbage leaves
Description: To produce a suitable preparation of active compound, 1 part by weight of active compound is mixed with the stated amounts of solvent and emulsifier, and the concentrate is diluted with emulsifier-containing Water to the desired concentration.
Cabbage leaves (Brassica oleracea) are treated by being dipped into the preparation of active compound of the desired concentration and are populated with caterpillars of the diamond back moth (Plutella xylostella) while the leaves are still moist.
After the desired period of time, the kill in % is determined. 100% means that all caterpillars have been killed; 0% means that none of the caterpillars have been killed.

In the case of CC[S+]([O-])c1c(C#N)nn(-c2c(Cl)cc(C(F)(F)F)cc2Cl)c1N (centres unmarked) [Ethiprole, ethiprole], the “Kill in % after 6 d” value (Myzus persicae) is reported as 10% and the “Kill in % after 6 d” value (Plutella xylostella) is reported as 0%.
